Source: article PMC2580052 (Proteins, 2008)

Target: T1, geranylgeranyl diphosphate synthase (GGPPS) (Saccharomyces cerevisiae, UniProt Q12051)
T1 sequence (Q12051 1-335): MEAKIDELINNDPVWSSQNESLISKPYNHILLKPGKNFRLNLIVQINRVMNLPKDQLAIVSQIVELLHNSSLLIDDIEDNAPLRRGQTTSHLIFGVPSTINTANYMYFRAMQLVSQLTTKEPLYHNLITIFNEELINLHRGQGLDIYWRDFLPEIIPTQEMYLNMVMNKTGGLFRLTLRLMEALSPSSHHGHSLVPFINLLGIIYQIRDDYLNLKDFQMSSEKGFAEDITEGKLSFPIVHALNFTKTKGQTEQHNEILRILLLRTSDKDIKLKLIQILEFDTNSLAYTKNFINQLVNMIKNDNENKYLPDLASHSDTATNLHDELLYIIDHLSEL
Assay: X-ray crystal structure
Type: binding

CN(CCCCc1ccccc1)CCC(O)(P(=O)(O)O)P(=O)(O)O [compound 5, N-[methyl(4-phenylbutyl)]-3-aminopropyl-1-hydroxy-1,1-bisphosphonate]
X-ray crystal structure (2.08 Å, soaked crystals): We thus crystallized and determined the x-ray crystallographic structure of BPH-210 bound to GGPPS.
